{"source": "patent US11389536B2", "about": "(priority 2015, dated 2022)", "key": {"[1]": {"test_system": "non-tumor-bearing athymic nude mice", "protocol": "Non-tumor-bearing athymic nude mice were exposed to fractionated doses of 30 Gy radiation (weekly administration of 5 Gy) in the presence or absence of twice weekly intravenous (i.v.) injections of Ce02 or intraperitoneal (i.p.) injections of Amifostine 30 min prior to radiation. Amifostine is a free radical scavenger. […] Treatments continued for […] for a total dose of 30 Gy radiation. The mice were killed and necropsied only when they became moribund or the experiment was terminated. The weight and mortality of each mouse was measured throughout the experiment and median and percent survival was determined, as shown in FIG. 22E."}, "[2]": {"test_system": "lungs of athymic nude mice", "test": "Lung histology for radiation-induced pneumonitis and fibrosis (H&E, Masson's trichrome)", "type": "in vivo", "conditions": "irradiated lungs", "protocol": "For the in vivo studies, athymic nude mice are housed in the specific pathogen-free (SPF) Cancer Research Institute animal facility which exceeds the national requirements for animal care, with two conventional mouse rooms, two nude mouse rooms, and one quarantine room. Radiation was administered using an IC160 X-ray cell culture and small animal irradiation system (Kimtron Inc., Woodbury, Conn., USA) located inside the animal facility. Nine weeks post radiation, the mice were sacrificed and the lungs were harvested and processed for hematoxylin and eosin (H&E) staining. For immunohistochemistry and hematoxylin and eosin-staining procedures, one part of the tumor tissue is formalin-fixed and paraffin-embedded and another part embedded in OCT compound (Miles, Inc., Elkhart, Ind.), rapidly frozen in liquid nitrogen, and stored at […] for sectioning. Immunofluorescence microscopy is performed using a 20× objective on an epifluorescence microscope equipped with narrow bandpass excitation filters mounted in a filter wheel (Ludl Electronic Products, Hawthorne, N.Y.).\nTo determine the degree of radiation-induced pneumonitis, the lungs were harvested and processed for histology and H&E staining (FIGS. 23A-23D) and the amount of fibrosis and collagen deposition, indicative of chronic lung conditions, was measured using Masson's trichrome stain (FIGS. 23E-23H)."}}, "note": "Where two headings read alike, the source gives them in different places."}
{"smiles": "NCCCNCCSP(=O)(O)O", "note": "[Amifostine]", "values": [{"measurement": "median survival time", "setting": "[1]; agent alone, no radiation (Amifostine 150 mg/kg i.p.)", "result": 119, "unit": "days"}, {"measurement": "tolerability / toxicity to mice", "setting": "[1]; athymic nude mice", "result": "highly toxic to the mice"}, {"measurement": "median survival time", "setting": "[1]; combination with radiation (5 Gy fractions, total 30 Gy), CONPs 15 nM i.v. twice weekly, Amifostine i.p. 30 min prior to radiation", "result": 81, "unit": "days"}, {"measurement": "fibrosis and collagen deposition (Masson's Trichrome stain)", "setting": "[2]", "result": "fibrosis and collagen deposition were common"}]}
